ChEMBL document CHEMBL5365492 (J Med Chem, 2023)
Square brackets hold non-standard residues; d marks the D form. Peptide text beside a SMILES is read from it. NMeL = CN[C@@H](CC(C)C)C(=O)O; NMeV = CN[C@H](C(=O)O)C(C)C; Nva = CCC[C@H](N)C(=O)O; Sar = CNCC(=O)O

Assays:
[1] = 1,9-decadiene-water partition coefficient, logD of compound at pH 7.4 at 10 uM incubated for 30 mins by LC-MS analysis; type: physicochemical
[2] = Permeability in human Caco-2 cells at 10 uM incubated for 2 hrs by LC-MS analysis; type: ADME, cell-based; settings: read-out: permeability
[3] = Permeability of compound at 10 uM incubated for 18 hrs by PAMPA assay; type: ADME; settings: read-out: permeability

Row | Structure (SMILES) | logD hydrocarbon water at 0.5 h, 10 µM [1] | Papp at 2 h, 10 µM [2] | Papp at 18 h, 10 µM [3]
1 | C/C=C/C[C@@H](C)[C@@H](OC(C)=O)[C@H]1C(=O)N[C@@H](CC)C(=O)N(C)CC(=O)N(C)[C@@H](CC(C)C)C(=O)N[C@@H](C(C)C)C(=O)N(C)[C@@H](CC(C)C)C(=O)N[C@@H](C)C(=O)N[C@H](C)C(=O)N(C)[C@@H](CC(C)C)C(=O)N(C)[C@@H](CC(C)C)C(=O)N(C)[C@@H](C(C)C)C(=O)N1C | 5.17 | – | –
2 | CCC[C@@H]1NC(=O)[C@H]([C@@H](C)O)N(C)C(=O)[C@H](C)NC(=O)[C@H](CC(C)C)N(C)C(=O)[C@H](CC(C)C)N(C)C(=O)[C@@H](C)NC(=O)[C@H](C)NC(=O)[C@H](CC(C)C)N(C)C(=O)[C@H](C(C)C)NC(=O)[C@H](CC(C)C)N(C)C(=O)CN(C)C1=O | 1.45 | 0.3 ×10⁻⁶ cm/s | 0.3 ×10⁻⁶ cm/s
3 | CCC[C@@H]1NC(=O)[C@H]([C@@H](C)O)N(C)C(=O)[C@H](C(C)C)N(C)C(=O)CN(CC[N+](CC)(CC)CC)C(=O)[C@H](CC(C)C)N(C)C(=O)[C@@H](C)NC(=O)[C@H](C)NC(=O)[C@H](CC(C)C)N(C)C(=O)[C@H](C(C)C)NC(=O)[C@H](CC(C)C)N(C)C(=O)CN(C)C1=O.O=C([O-])C(F)(F)F | -2.44 | 0.35 ×10⁻⁶ cm/s | –
4 | CCC[C@@H]1NC(=O)[C@H]([C@@H](C)O)N(C)C(=O)[C@H](C(C)C)N(C)C(=O)CN(CCN(C(C)C)C(C)C)C(=O)[C@H](CC(C)C)N(C)C(=O)[C@@H](C)NC(=O)[C@H](C)NC(=O)[C@H](CC(C)C)N(C)C(=O)[C@H](C(C)C)NC(=O)[C@H](CC(C)C)N(C)C(=O)CN(C)C1=O.O=C(O)C(F)(F)F | 0.13 | 0.07 ×10⁻⁶ cm/s | –
5 | CCCC[C@@H]1NC(=O)[C@H](CC(C)C)N(C)C(=O)[C@H](CC(C)C)N(C)C(=O)[C@@H](C)NC(=O)[C@H](C)NC(=O)[C@H](CC(C)C)N(C)C(=O)[C@H](C(C)C)NC(=O)[C@H](CC(C)C)N(C)C(=O)CN(C)C(=O)[C@H](CCC)NC(=O)[C@H]([C@@H](C)O)N(C)C1=O | 2.59 | 3 ×10⁻⁶ cm/s | 5.2 ×10⁻⁶ cm/s
6 | CCC[C@@H]1NC(=O)[C@H]([C@@H](C)O)N(C)C(=O)[C@H]([C@@H](C)CC)NC(=O)[C@H](CC(C)C)N(C)C(=O)[C@H](CC(C)C)N(C)C(=O)[C@@H](C)NC(=O)[C@H](C)NC(=O)[C@H](CC(C)C)N(C)C(=O)[C@H](C(C)C)NC(=O)[C@H](CC(C)C)N(C)C(=O)CN(C)C1=O | 2.58 | 2.2 ×10⁻⁶ cm/s | 7.5 ×10⁻⁶ cm/s
7 | CCC[C@@H]1NC(=O)[C@H]([C@H](O)C(C)C)N(C)C(=O)[C@H](C(C)C)NC(=O)[C@H](CC(C)C)N(C)C(=O)[C@H](CC(C)C)N(C)C(=O)[C@@H](C)NC(=O)[C@H](C)NC(=O)[C@H](CC(C)C)N(C)C(=O)[C@H](C(C)C)NC(=O)[C@H](CC(C)C)N(C)C(=O)CN(C)C1=O | 4.6 | 6.8 ×10⁻⁶ cm/s | –
8 | NC(=O)N1c2ccccc2C=Cc2ccccc21 [CARBAMAZEPINE] | 0.13 | – | 9.5 ×10⁻⁶ cm/s
9 | CC(C)NCC(O)COc1cccc2ccccc12 (configuration not stated) [PROPRANOLOL] | – | 32 ×10⁻⁶ cm/s | –

The remaining lines, values ahead:

Row | logD hydrocarbon water at 0.5 h, 10 µM [1] | Papp at 2 h, 10 µM [2] | Papp at 18 h, 10 µM [3] | Structure (SMILES)
10 | 3.58 | 6.4 ×10⁻⁶ cm/s | 2 ×10⁻⁶ cm/s | CCC[C@@H]1NC(=O)[C@H](CC)N(C)C(=O)[C@H](C(C)C)N(C)C(=O)[C@H](CC(C)C)N(C)C(=O)[C@H](CC(C)C)N(C)C(=O)[C@@H](C)NC(=O)[C@H](C)NC(=O)[C@H](CC(C)C)N(C)C(=O)[C@H](C(C)C)NC(=O)[C@H](CC(C)C)N(C)C(=O)CN(C)C1=O
11 | 3.12 | 8.7 ×10⁻⁶ cm/s | 0.8 ×10⁻⁶ cm/s | CCC[C@@H]1NC(=O)[C@H]([C@@H](C)O)N(C)C(=O)[C@H](C(C)C)NC(=O)[C@H](CC(C)C)N(C)C(=O)[C@H](CC(C)C)N(C)C(=O)[C@@H](C)NC(=O)[C@H](C)NC(=O)[C@H](CC(C)C)N(C)C(=O)[C@H](C(C)C)NC(=O)[C@H](CC(C)C)N(C)C(=O)CN(C)C1=O
12 | 2.52 | 2.6 ×10⁻⁶ cm/s | 7.7 ×10⁻⁶ cm/s | CCC[C@@H]1NC(=O)[C@H]([C@@H](C)O)N(C)C(=O)[C@H](CC(C)C)NC(=O)[C@H](CC(C)C)N(C)C(=O)[C@H](CC(C)C)N(C)C(=O)[C@@H](C)NC(=O)[C@H](C)NC(=O)[C@H](CC(C)C)N(C)C(=O)[C@H](C(C)C)NC(=O)[C@H](CC(C)C)N(C)C(=O)CN(C)C1=O
13 | 3.35 | 18.6 ×10⁻⁶ cm/s | 9.2 ×10⁻⁶ cm/s | CCC[C@@H]1NC(=O)[C@H]([C@H](O)C(C)C)N(C)C(=O)[C@H](C(C)C)N(C)C(=O)[C@H](CC(C)C)N(C)C(=O)[C@H](CC(C)C)N(C)C(=O)[C@@H](C)NC(=O)[C@H](C)NC(=O)[C@H](CC(C)C)N(C)C(=O)[C@H](C(C)C)NC(=O)[C@H](CC(C)C)N(C)C(=O)CN(C)C1=O
14 | 2.12 | 3 ×10⁻⁶ cm/s | 6.6 ×10⁻⁶ cm/s | CCC[C@@H]1NC(=O)[C@H]([C@@H](C)O)N(C)C(=O)[C@H](C(C)C)N(C)C(=O)[C@H](CC(C)C)N(C)C(=O)[C@H](CC(C)C)N(C)C(=O)[C@@H](C)NC(=O)[C@H](C)NC(=O)[C@H](CC(C)C)N(C)C(=O)[C@H](C(C)C)NC(=O)[C@H](CC(C)C)N(C)C(=O)CN(C)C1=O
15 | 4.93 | 4.1 ×10⁻⁶ cm/s | 0.6 ×10⁻⁶ cm/s | CCC[C@@H]1NC(=O)[C@H](CC(C)C)N(C)C(=O)[C@H](C(C)C)N(C)C(=O)[C@H](CC(C)C)N(C)C(=O)[C@H](CC(C)C)N(C)C(=O)[C@@H](C)NC(=O)[C@H](C)NC(=O)[C@H](CC(C)C)N(C)C(=O)[C@H](C(C)C)NC(=O)[C@H](CC(C)C)N(C)C(=O)CN(C)C1=O (cyclo(A[dA][NMeL][NMeL][NMeV][NMeL][Nva][Sar][NMeL]V[NMeL]))
